We go through 20 compounds from patent US20230339952A1, “MACROCYCLIC HETEROCYCLES AND USES THEREOF” (Kumquat Biosciences Inc., priority 2022, published 2023).

The structures appear in SMILES notation. Where two headings read alike, the source gives them in different places.

One assay has as its target SOS1 (Homo sapiens (Human), UniProt Q07889). Briefly: Ras-SOS interaction assay (HTRF), K-Ras G13D utilized. Type of assay: binding. Particulars: K-Ras G13D. (In general: In TR-FRET formats the signal depends on donor and acceptor labels being close together.)
For assay [1], the system named is NCI-H1975 (ATCC CRL-5908) cell line comprising an EGFR T790M L858R double mutation. Nature of the assay: EGFR-SOS cellular inhibition assay (CellTiter-Glo cell proliferation). Type of assay: cell-based. Particulars: Homo sapiens, 120 h; NCI-H1975 cell proliferation, approximately 5 days; read-out: H1975 IC50. (ATP-based viability assays read luminescence as a measure of living cells.)
Procedure: A CellTiter-Glo (CTG) luminescent based assay (Promega) is used to assess growth of the cells, as a measurement of the ability of the compounds herein to inhibit EGFR signaling in the cells. […] The day after plating, cells are treated with a dilution series (e.g., a 9 point 3-fold dilution series) of the compounds herein (e.g., approximately 125 μL final volume per well).

Sequence of SOS1 (Q07889 564-1049): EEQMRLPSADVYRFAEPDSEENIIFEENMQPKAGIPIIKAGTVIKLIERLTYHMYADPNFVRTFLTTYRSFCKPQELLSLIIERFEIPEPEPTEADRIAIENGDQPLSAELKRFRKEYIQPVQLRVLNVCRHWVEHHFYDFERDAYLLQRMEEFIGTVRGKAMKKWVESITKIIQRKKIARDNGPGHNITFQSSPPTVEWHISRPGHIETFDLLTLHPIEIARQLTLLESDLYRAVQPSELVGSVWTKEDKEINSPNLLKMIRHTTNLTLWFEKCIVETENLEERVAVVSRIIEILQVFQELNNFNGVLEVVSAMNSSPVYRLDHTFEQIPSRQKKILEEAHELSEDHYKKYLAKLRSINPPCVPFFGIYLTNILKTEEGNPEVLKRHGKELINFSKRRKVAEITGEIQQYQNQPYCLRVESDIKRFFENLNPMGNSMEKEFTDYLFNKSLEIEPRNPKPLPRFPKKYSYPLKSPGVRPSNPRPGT

Regarding `CC(C)N1CCN(c2cc3c4ncnc3n(c2=O)CCCCCCN2CCC(CC2)CC(F)(F)c2cccc(c2)[C@@H](C)N4)CC1` [Compound 50, (3R)-5,5-difluoro-1^6-(4-isopropylpiperazin-1-yl)-3-methyl-1^7,1^8-dihydro-2-aza-1(4,8)-pyrido[2,3-d]pyrimidina-7(4,1)-piperidina-4(1,3)-benzenacyclotridecaphan-1^7-one], the IC50 (in general, the concentration needed to halve the response being measured) was under 100 nM at SOS1 (read-out: SOS1 IC50) and under 1000 nM in assay [1].

`C[C@H]1Nc2ncnc3c2cc(C2CCS(=O)(=O)CC2)c(=O)n3CCCCCCN2CCC(CC2)CC(F)(F)c2cccc1c2F` [Compound 156, (3R)-1^6-(1,1-dioxidothiomorpholino)-4^2,5,5-trifluoro-3-methyl-1^7,1^8-dihydro-2-aza-1(4,8)-pyrido[2,3-d]pyrimidina-7(4,1)-piperidina-4(1,3)-benzenacyclotridecaphan-1^7-one]: the values for the 50% inhibitory concentration (IC50) (at SOS1 (read-out: SOS1 IC50); in assay [1]) were under 100 nM and under 1000 nM, respectively.

As to `Cc1nc2c3cc(C4(C#N)CC4)c(=O)n(c3n1)CCC/C=C\CN1CCC(CC1)C(F)(F)c1cccc(c1)[C@@H](C)N2` [Compound 166, 1-((4R,Z)-2,2-difluoro-6^2,4-dimethyl-6^7-oxo-6^7,6^8-dihydro-5-aza-6(4,8)-pyrido[2,3-d]pyrimidina-1(4,1)-piperidina-3(1,3)-benzenacyclododecaphan-10-en-6^6-yl)cyclopropane-1-carbonitrile], the results for the IC50 (at SOS1 (read-out: IC50 value against SOS1); at SOS1 (read-out: SOS1 IC50); in assay [1]) were under 50 nM, under 100 nM and under 1000 nM, respectively.

As for `C[C@H]1Nc2ncnc3c2cc(C2(C#N)CC2)c(=O)n3CCCCNC(=O)[C@H](C)N2CCC(CC2)C(F)(F)c2cccc1c2` [Compound 153, 1-((4R,13S)-2,2-difluoro-4,13-dimethyl-6^7,12-dioxo-6^7,6^8-dihydro-5,11-diaza-6(4,8)-pyrido[2,3-d]pyrimidina-1(4,1)-piperidina-3(1,3)-benzenacyclotridecaphane-6^6-yl)cyclopropane-1-carbonitrile], the IC50 is under 100 nM on SOS1 (read-out: SOS1 IC50) and under 1000 nM in assay [1].

In the case of `CC1CCCCCn2c(=O)c(C3(C#N)CC3)cc3c(ncnc32)N[C@H](C)c2cccc(c2F)C(F)(F)C2CCN(CC2)C1` (stereo partly drawn) [Compound 20, 1-((4R)-3^2,2,2-trifluoro-4,12-dimethyl-6^7-oxo-6^7,6^8-dihydro-5-aza-6(4,8)-pyrido[2,3-d]pyrimidina-1(4,1)-piperidina-3(1,3)-benzenacyclotridecaphane-6^6-yl)cyclopropane-1-carbonitrile], the IC50 was under 100 nM at SOS1 (read-out: SOS1 IC50) and under 1000 nM in assay [1].

For the compound `Cc1nc2c3cc(C4(C#N)CC4)c(=O)n(c3n1)CCCCCCCCOCC(F)(F)c1cccc(c1F)[C@@H](C)N2` [Compound 49, 1-((3R)-4^2,5,5-trifluoro-1^2,3-dimethyl-1^7-oxo-1^7,1^8-dihydro-7-oxa-2-aza-1(4,8)-pyrido[2,3-d]pyrimidina-4(1,3)-benzenacyclopentadecaphane-1^6-yl)cyclopropane-1-carbonitrile], the concentration for half-maximal inhibition (IC50) at SOS1 (read-out: SOS1 IC50) is under 100 nM; in assay [1] it was under 1000 nM.

With `Cc1nc2c3cc(C4(C#N)CC4)c(=O)n(c3n1)CC/C=C\CN1CCC(CC1)C(F)(F)c1cccc(c1)[C@@H](C)N2` [Compound 172, 1-((4R,Z)-2,2-difluoro-6^2,4-dimethyl-6^7-oxo-6^7,6^8-dihydro-5-aza-6(4,8)-pyrido[2,3-d]pyrimidina-1(4,1)-piperidina-3(1,3)-benzenacycloundecaphan-9-en-6^6-yl)cyclopropane-1-carbonitrile], the IC50 is 100 to 5000 nM on SOS1 (read-out: SOS1 IC50) and under 1000 nM in assay [1].

Turning to `CC1CC/C=C\CCn2c(=O)c(C3(C#N)CC3)cc3c(ncnc32)N[C@H](C)c2cccc(c2F)C(F)(F)C2CCN1CC2` (stereo partly drawn) [Compound 24, 1-((4R,Z)-3^2,2,2-trifluoro-4,13-dimethyl-6^7-oxo-6^7,6^8-dihydro-5-aza-6(4,8)-pyrido[2,3-d]pyrimidina-1(4,1)-piperidina-3(1,3)-benzenacyclotridecaphan-9-en-6^6-yl)cyclopropane-1-carbonitrile], the 50% inhibitory concentration (IC50) was under 100 nM on SOS1 (read-out: SOS1 IC50) and under 1000 nM in assay [1].

Turning to `C[C@H]1Nc2ncnc3c2cc(N2CCN(C4CCN(C)CC4)CC2)c(=O)n3CCCCCCCN2CCC(CC2)C(F)(F)c2cccc1c2F` [Compound 178, (4R)-3^2,2,2-trifluoro-4-methyl-6^6-(4-(1-methylpiperidin-4-yl)piperazin-1-yl)-6^7,6^8-dihydro-5-aza-6(4,8)-pyrido[2,3-d]pyrimidina-1(4,1)-piperidina-3(1,3)-benzenacyclotridecaphan-6^7-one], the IC50 on SOS1 (read-out: SOS1 IC50) is under 100 nM; in assay [1] it was under 1000 nM.

With `Cc1nc2c3cc(C4(C#N)CC4)c(=O)n(c3n1)CCCCC/C=C\COCC(F)(F)c1cccc(c1F)[C@@H](C)N2` [Compound 109, 1-((3R,Z)-4^2,5,5-trifluoro-1^2,3-dimethyl-1^7-oxo-1^7,1^8-dihydro-7-oxa-2-aza-1(4,8)-pyrido[2,3-d]pyrimidina-4(1,3)-benzenacyclopentadecaphan-9-en-1^6-yl)cyclopropane-1-carbonitrile], the IC50 was under 100 nM on SOS1 (read-out: SOS1 IC50) and under 1000 nM in assay [1].

Regarding `CC(C)N1CCC(c2cc3c4ncnc3n(c2=O)CCCC/C=C/CN2CCC(CC2)C(F)(F)c2cccc(c2)[C@@H](C)N4)CC1` [Compound 149, (4R,E)-2,2-difluoro-6^6-(1-isopropylpiperidin-4-yl)-4-methyl-6^7,6^8-dihydro-5-aza-6(4,8)-pyrido[2,3-d]pyrimidina-1(4,1)-piperidina-3(1,3)-benzenacyclotridecaphan-11-en-6^7-one], the results for the IC50 (at SOS1 (read-out: SOS1 IC50); in assay [1]) were under 100 nM and under 1000 nM, respectively.

In the case of `C[C@H]1Nc2ncnc3c2cc(C2CCS(=O)(=O)CC2)c(=O)n3CCCCNC(=O)CN2CCC(CC2)C(F)(F)c2cccc1c2` [Compound 118, (4R)-6^6-(1,1-dioxidotetrahydro-2H-thiopyran-4-yl)-2,2-difluoro-4-methyl-6^7,6^8-dihydro-5,11-diaza-6(4,8)-pyrido[2,3-d]pyrimidina-1(4,1)-piperidina-3(1,3)-benzenacyclotridecaphane-6^7,12-dione], the concentration for half-maximal inhibition (IC50) at SOS1 (read-out: SOS1 IC50) is under 100 nM; in assay [1], under 1000 nM.

For the compound `CC1CCCCCCn2c(=O)c(C3(C#N)CC3)cc3c(ncnc32)N[C@H](C)c2cccc(c2)C(F)(F)C2CCN1CC2` (stereo partly drawn) [Compound 63, 1-((4R)-2,2-difluoro-4,13-dimethyl-6^7-oxo-6^7,6^8-dihydro-5-aza-6(4,8)-pyrido[2,3-d]pyrimidina-1(4,1)-piperidina-3(1,3)-benzenacyclotridecaphane-6^6-yl)cyclopropane-1-carbonitrile], the concentration for half-maximal inhibition (IC50) on SOS1 (read-out: SOS1 IC50) is under 100 nM; in assay [1], under 1000 nM.

With `C[C@H]1Nc2ncnc3c2cc(C2(C#N)CC2)c(=O)n3CCCNC(=O)CCN2CCC(CC2)C(F)(F)c2cccc1c2` [Compound 144, 1-((4R)-2,2-difluoro-4-methyl-6^7,11-dioxo-6^7,6^8-dihydro-5,10-diaza-6(4,8)-pyrido[2,3-d]pyrimidina-1(4,1)-piperidina-3(1,3)-benzenacyclotridecaphane-6^6-yl)cyclopropane-1-carbonitrile], the half-maximal inhibitory concentration (IC50) on SOS1 (read-out: SOS1 IC50) is under 100 nM; in assay [1] it was under 1000 nM.

On to `C[C@H]1Nc2ncnc3c2cc(C2(C#N)CC2)c(=O)n3CCNC(=O)CCCN2CCC(CC2)C(F)(F)c2cccc1c2` [Compound 71, 1-((4R)-2,2-difluoro-4-methyl-6^7,10-dioxo-6^7,6^8-dihydro-5,9-diaza-6(4,8)-pyrido[2,3-d]pyrimidina-1(4,1)-piperidina-3(1,3)-benzenacyclotridecaphane-6^6-yl)cyclopropane-1-carbonitrile], for which the IC50 at SOS1 (read-out: SOS1 IC50) is under 100 nM; in assay [1], under 1000 nM.

`C[C@H]1Nc2ncnc3c2cc(C2(C#N)CC2)c(=O)n3CCC/C=C/CN2CCC(CC2)CC(F)(F)c2cccc1c2F` [Compound 89, 1-((3R,E)-4^2,5,5-trifluoro-3-methyl-1^7-oxo-1^7,1^8-dihydro-2-aza-1(4,8)-pyrido[2,3-d]pyrimidina-7(4,1)-piperidina-4(1,3)-benzenacyclotridecaphan-9-en-1^6-yl)cyclopropane-1-carbonitrile]: the half-maximal inhibitory concentration (IC50) at SOS1 (read-out: SOS1 IC50) is under 100 nM; in assay [1], under 1000 nM.

As for `C[C@H]1Nc2ncnc3c2cc(C2(C#N)CC2)c(=O)n3CCCNC(=O)CCN2CCC(CC2)C(F)(F)c2cccc1c2F` [Compound 11, 1-((4R)-3^2,2,2-trifluoro-4-methyl-6^7,11-dioxo-6^7,6^8-dihydro-5,10-diaza-6(4,8)-pyrido[2,3-d]pyrimidina-1(4,1)-piperidina-3(1,3)-benzenacyclotridecaphane-6^6-yl)cyclopropane-1-carbonitrile], the results for the IC50 (on SOS1 (read-out: SOS1 IC50); in assay [1]) were under 100 nM and under 1000 nM, respectively.

Regarding `C[C@H]1Nc2ncnc3c2cc(N2CCOCC2)c(=O)n3CCCCCCCN2CCC(CC2)C(F)(F)c2cccc1c2` [Compound 64, (4R)-2,2-difluoro-4-methyl-6^6-morpholino-6^7,6^8-dihydro-5-aza-6(4,8)-pyrido[2,3-d]pyrimidina-1(4,1)-piperidina-3(1,3)-benzenacyclotridecaphan-6^7-one], the values for the IC50 (on SOS1 (read-out: SOS1 IC50); in assay [1]) were under 100 nM and under 1000 nM, respectively.

With `C[C@H]1Nc2ncnc3c2cc(C2CCS(=O)(=O)CC2)c(=O)n3CCCCCCCN2CC(C2)CC(F)(F)c2cccc1c2` [Compound 161, (3R)-1^6-(1,1-dioxidotetrahydro-2H-thiopyran-4-yl)-5,5-difluoro-3-methyl-1^7,1^8-dihydro-2-aza-1(4,8)-pyrido[2,3-d]pyrimidina-7(3,1)-azetidina-4(1,3)-benzenacyclotetradecaphan-1^7-one], the IC50 was under 100 nM at SOS1 (read-out: SOS1 IC50) and under 1000 nM in assay [1].

Turning to `C[C@H]1Nc2ncnc3c2cc(C2(C#N)CC2)c(=O)n3CC(=O)N(C)CCCCN2CCC(CC2)C(F)(F)c2cccc1c2F` [Compound 128, 1-((4R)-3^2,2,2-trifluoro-4,9-dimethyl-6^7,8-dioxo-6^7, 6^8-dihydro-5,9-diaza-6(4,8)-pyrido[2,3-d]pyrimidina-1(4,1)-piperidina-3(1,3)-benzenacyclotridecaphane-6^6-yl)cyclopropane-1-carbonitrile], the values for the half-inhibitory concentration (IC50) (at SOS1 (read-out: SOS1 IC50); in assay [1]) were under 100 nM and under 1000 nM, respectively.
